For one assay, the system named is PC3 cells. Put plainly: PC3 growth inhibition (Cell-titer glo, 72 hours). It is filed as cell-based. Conditions: Homo sapiens, PC-3, 72 h, read-out: Percent Viability, PC3 cells, compound concentration 1.667 μM, 72 hours. Summed up: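 After 72 h compound treatment in AIM serum-free medium (37 °C, 5% CO2), viability of overnight-plated PC3 cells (8×10^4 cells/ml, RPMI1640-maintained) is read by CellTiter-Glo luminescence versus DMSO. Curves give GI50, LD50 or single-concentration % remaining viability.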

The next assay addresses hNAMPT protein (Homo sapiens (Human), UniProt P43490). Put plainly: NAMPT enzyme assay (TR-FRET/HTRF with BodiPY ligand). It is filed as binding. The note with it: for inhibition at 1 µM: NAMPT inhibition at compound concentration 1 μM, read-out: Percent Inhibition; for IC50: NAMPT inhibition, IC50 range class. Summed up:
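Ligand displacement by TR-FRET: BodiPY emission (520 nm) over terbium (486 nm) after 320 nm excitation. Compound, BodiPY ligand, hNAMPT and anti-6His-Tb incubated 1 h at room temperature, dark, at pH 7.5. Percent inhibition computed versus DMSO; concentration-response curves fitted for IC50.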
For orientation: TR-FRET usually uses a lanthanide donor and a delayed reading to cut background.

Molecules are shown by their SMILES.

For 19 molecules, viability, inhibition and IC50 results are on record in patent US10323018B2 (Millennium Pharmaceuticals, Inc., priority 2015, dated 2019).

Sequence of hNAMPT protein (P43490 whole entry): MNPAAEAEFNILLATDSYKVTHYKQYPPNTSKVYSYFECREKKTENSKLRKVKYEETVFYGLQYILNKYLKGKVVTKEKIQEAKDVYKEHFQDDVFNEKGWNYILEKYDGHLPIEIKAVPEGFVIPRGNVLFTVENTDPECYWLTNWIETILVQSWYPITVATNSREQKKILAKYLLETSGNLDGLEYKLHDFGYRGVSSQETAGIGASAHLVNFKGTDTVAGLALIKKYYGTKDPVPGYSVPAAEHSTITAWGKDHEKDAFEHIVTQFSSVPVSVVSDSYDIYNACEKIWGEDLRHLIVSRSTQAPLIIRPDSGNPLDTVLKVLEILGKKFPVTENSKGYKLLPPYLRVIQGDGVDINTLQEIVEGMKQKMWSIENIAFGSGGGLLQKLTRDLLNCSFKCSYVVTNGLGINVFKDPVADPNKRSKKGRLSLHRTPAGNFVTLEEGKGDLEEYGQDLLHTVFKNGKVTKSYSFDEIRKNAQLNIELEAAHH

Take `CCOc1cc(-c2ccc(Cl)s2)nc2cc(C(=O)NCCc3cnn[nH]3)ccc12` [Compound I-176, 2-(5-chloro-2-thienyl)-4-ethoxy-N-[2-(1H-1,2,3-triazol-5-yl)ethyl]quinoline-7-carboxamide]: the viability at 1.667 µM in the assay on PC3 cells worked out at 4%. Further, on hNAMPT protein, the inhibition (usually the drop in the measured response relative to a control, in per cent) at 1 µM was determined as 99% and the IC50 (in general, the concentration at which inhibition is half-maximal) lay within 10 to 50 nM.
For `CCOc1nc(-c2ccc(F)cc2)nc2cc(C(=O)NCc3ccc4nccn4c3)ccc12` [Compound I-34, 4-ethoxy-2-(4-fluorophenyl)-N-(imidazo[1,2-a]pyridin-6-ylmethyl)quinazoline-7-carboxamide] the same measures were 1%, 97% and less than 10 nM.
As to `CCOc1cc(-c2ccc(C)nc2)nc2cc(C(=O)NCCCc3[nH]nnc3C)ccc12` [Compound I-112, 4-ethoxy-2-(6-methylpyridin-3-yl)-N-[3-(4-methyl-1H-1,2,3-triazol-5-yl)propyl]quinoline-7-carboxamide], in the assay on PC3 cells, the viability at 1.667 µM was 2%. In addition, at hNAMPT protein, the inhibition at 1 µM came to 99% and the IC50 lay within 10 to 50 nM.
As for `CCOc1cc(-c2ccc(F)cc2)nc2cc(C(=O)NCCCc3cncnc3)ccc12` [Compound I-228, 4-ethoxy-2-(4-fluorophenyl)-N-[3-(pyrimidin-5-yl)propyl]quinoline-7-carboxamide], the viability at 1.667 µM in the assay with PC3 cells worked out at 5%. At hNAMPT protein, the inhibition at 1 µM stood at 94% and the IC50 is less than 10 nM.
For `CCCc1cc(-c2ccc(F)cc2)nc2cc(C(=O)NCCc3c[nH]nc3C)ccc12` [Compound I-152, 2-(4-fluorophenyl)-N-[2-(3-methyl-1H-pyrazol-4-yl)ethyl]-4-propylquinoline-7-carboxamide] the same measures were 2%, 84% and greater than 100 nM.
In the case of `CCNc1nc(-c2ccc(F)cc2)nc2cc(C(=O)NCCCc3ncc[nH]3)ccc12` [Compound I-41, 4-(ethylamino)-2-(4-fluorophenyl)-N-[3-(1H-imidazol-2-yl)propyl]quinazoline-7-carboxamide], the viability at 1.667 µM in the assay with PC3 cells turned out to be 2%. For the same molecule, at hNAMPT protein, the inhibition at 1 µM came out at 92% and the IC50 was greater than 100 nM.
`CCOc1cc(-c2ccc(F)cc2)nc2cc(C(=O)NCCc3nn[nH]n3)ccc12` [Compound I-221, 4-ethoxy-2-(4-fluorophenyl)-N-[2-(2H-tetrazol-5-yl)ethyl]quinoline-7-carboxamide]: in the assay on PC3 cells, the viability at 1.667 µM amounted to 89%. At hNAMPT protein, the inhibition at 1 µM worked out at 53% and the IC50 is greater than 100 nM.
Taken in the same sequence, the figures for `CCOc1cc(-c2ccc(F)cc2OC)nc2cc(C(=O)NCCCc3nnc[nH]3)ccc12` [Compound I-165, 4-ethoxy-2-(4-fluoro-2-methoxyphenyl)-N-[3-(4H-1,2,4-triazol-3-yl)propyl]quinoline-7-carboxamide] were 1%, 99% and 10 to 50 nM.
Taken in the same sequence, the figures for `CCOc1cc(-c2ccc(F)cc2)nc2cc(C(=O)N[C@H]3C[C@@H](c4nnc[nH]4)C3)ccc12` [Compound I-222, 4-ethoxy-2-(4-fluorophenyl)-N-[cis-3-(4H-1,2,4-triazol-3-yl)cyclobutyl]quinoline-7-carboxamide] were 4%, 96% and 10 to 50 nM.
With `CCOc1cc(-c2ccc(F)cc2OC)nc2cc(C(=O)NCCc3ncn[nH]3)ccc12` [Compound I-170, 4-ethoxy-2-(4-fluoro-2-methoxyphenyl)-N-[2-(1H-1,2,4-triazol-5-yl)ethyl]quinoline-7-carboxamide], the viability at 1.667 µM in the assay on PC3 cells worked out at 2%. Moreover, at hNAMPT protein, the inhibition at 1 µM was 93% and the IC50 is 50 to 100 nM.
For `CCOc1cc(-c2cnc(Cl)cc2C)nc2cc(C(=O)NCCCc3nnc[nH]3)ccc12` [Compound I-211, 2-(6-chloro-4-methylpyridin-3-yl)-4-ethoxy-N-[3-(4H-1,2,4-triazol-3-yl)propyl]quinoline-7-carboxamide] the same measures were 3%, 50% and greater than 100 nM.
Turning to `CCOc1cc(-c2ccc(F)cc2)nc2cc(C(=O)N[C@H]3C[C@@H](c4ncc[nH]4)C3)ccc12` [Compound I-60, 4-Ethoxy-2-(4-fluorophenyl)-N-[cis-3-(1H-imidazol-2-yl)cyclobutyl]quinoline-7-carboxamide], the viability at 1.667 µM in the assay with PC3 cells is 1%. At hNAMPT protein, the inhibition at 1 µM is 99% and the IC50 is less than 10 nM.
Consider `CCOc1cc(-c2ccnc(OC)c2)nc2cc(C(=O)NCCCc3cnn[nH]3)ccc12` [Compound I-116, 4-ethoxy-2-(2-methoxypyridin-4-yl)-N-[3-(1H-1,2,3-triazol-5-yl)propyl]quinoline-7-carboxamide], for which, in the assay on PC3 cells, the viability at 1.667 µM came to 2%. In addition, on hNAMPT protein, the inhibition at 1 µM came to 98% and the concentration for half-maximal inhibition (IC50) was less than 10 nM.
Taken in the same sequence, the figures for `COCCOc1cc(-c2ccc(F)cc2)nc2cc(C(=O)NCCCc3cc[nH]n3)ccc12` [Compound I-120, 2-(4-fluorophenyl)-4-(2-methoxyethoxy)-N-[3-(1H-pyrazol-3-yl)propyl]quinoline-7-carboxamide] were 2%, 94% and 10 to 50 nM.
For `CCOc1cc(-c2ccc(F)cc2)nc2cc(C(=O)NCCc3nnc[nH]3)ccc12` [Compound I-131, 4-ethoxy-2-(4-fluorophenyl)-N-[2-(4H-1,2,4-triazol-3-yl)ethyl]quinoline-7-carboxamide] the same measures were 3%, 99% and 10 to 50 nM.
In the case of `CCOc1cc(-c2cccc(C(F)(F)F)c2)nc2cc(C(=O)NCCCc3nnc[nH]3)ccc12` [Compound I-215, 4-ethoxy-N-[3-(4H-1,2,4-triazol-3-yl)propyl]-2-[3-(trifluoromethyl)phenyl]quinoline-7-carboxamide], the viability at 1.667 µM in the assay with PC3 cells is 1%. Moreover, at hNAMPT protein, the inhibition at 1 µM amounted to 93% and the IC50 lay in the range of 50 to 100 nM.
For `CCOc1cc(-c2ccc(C)nc2OC)nc2cc(C(=O)NCCCc3[nH]nnc3C)ccc12` [Compound I-94, 4-ethoxy-2-(2-methoxy-6-methylpyridin-3-yl)-N-[3-(4-methyl-1H-1,2,3-triazol-5-yl)propyl]quinoline-7-carboxamide] the same measures were 1%, 97% and 10 to 50 nM.
Taken in the same sequence, the figures for `COc1cc(-c2nc(-c3ccc(F)cc3)nc3cc(C(=O)NCCCc4nnc[nH]4)ccc23)ccn1` [Compound I-197, 2-(4-fluorophenyl)-4-(2-methoxypyridin-4-yl)-N-[3-(4H-1,2,4-triazol-3-yl)propyl]quinazoline-7-carboxamide] were 3%, 97% and 10 to 50 nM.
For `CCCc1cc(-c2ccc(F)cc2)nc2cc(C(=O)NCCCc3ncc[nH]3)ccc12` [Compound I-163, 2-(4-fluorophenyl)-N-[3-(1H-imidazol-2-yl)propyl]-4-propylquinoline-7-carboxamide] the same measures were 2%, 97% and less than 10 nM.
